# Reference: PMC6072243 (ACS Omega, 2018)
# Where two headings read alike, the source gives them in different places.
# Columns and labels:
# [1] = target: p38α MAPK (Homo sapiens, UniProt Q16539); experiment: p38α MAPK enzyme-linked immunosorbent assay; format: biochemical; conditions: for inhibition at 10 µM: read-out: Percent inhibition of p38α MAPK at indicated concentration
# [2] = target: JNK2 (Homo sapiens, UniProt P45984); experiment: Radiometric assay, Reaction Biology corporation; format: biochemical
# [3] = target: hERG channels (Homo sapiens, UniProt Q12809); experiment: hERG inhibition
# [4] = target: JNK3 (Homo sapiens, UniProt P53779); experiment: JNK3 enzyme-linked immunosorbent assay; format: biochemical
# [5] = target: CYP450 2C19 (Homo sapiens, UniProt P33261); experiment: CYP450 inhibition; format: in vitro ADME; conditions: % inhibition at 10 μM
# [6] = In vitro metabolic stability in human liver microsomes; format: in vitro ADME; conditions: after 4 h incubation
# [7] = target: CYP450 2C9 (Homo sapiens, UniProt P11712); experiment: CYP450 inhibition; format: in vitro ADME; conditions: % inhibition at 10 μM
# [8] = tested on: panel of 45 diverse kinases; experiment: ExpresS Diversity Kinase Panel, whole panel; format: biochemical, human; conditions: panel of 45 kinases, 10 μM, including JNK1
# [9] = target: CYP450 2D6 (Homo sapiens, UniProt P10635); experiment: CYP450 inhibition; format: in vitro ADME; conditions: % inhibition at 10 μM
# [10] = tested on: CYP450 1A9; experiment: CYP450 inhibition; format: in vitro ADME; conditions: % inhibition at 10 μM
# [11] = target: JNK1 (Homo sapiens, UniProt P45983); experiment: Radiometric assay, Reaction Biology corporation; format: biochemical
# [12] = target: CYP450 3A4 (Homo sapiens, UniProt P08684); experiment: CYP450 inhibition; format: in vitro ADME; conditions: % inhibition at 10 μM
# CYP450 3A4, sequence (P08684 whole entry): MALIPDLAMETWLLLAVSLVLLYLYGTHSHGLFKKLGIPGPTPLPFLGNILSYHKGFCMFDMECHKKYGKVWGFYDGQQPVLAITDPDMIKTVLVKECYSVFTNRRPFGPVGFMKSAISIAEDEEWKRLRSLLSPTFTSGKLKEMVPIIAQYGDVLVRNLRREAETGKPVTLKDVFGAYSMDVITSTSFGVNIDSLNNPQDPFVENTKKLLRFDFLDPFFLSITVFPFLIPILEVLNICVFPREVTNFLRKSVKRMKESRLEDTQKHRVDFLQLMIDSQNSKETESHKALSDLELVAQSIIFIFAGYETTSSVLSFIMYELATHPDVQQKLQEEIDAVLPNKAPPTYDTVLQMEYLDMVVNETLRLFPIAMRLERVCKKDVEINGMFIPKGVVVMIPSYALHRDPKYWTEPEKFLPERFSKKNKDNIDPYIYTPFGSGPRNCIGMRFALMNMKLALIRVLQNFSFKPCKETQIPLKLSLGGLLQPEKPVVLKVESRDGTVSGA
# p38α MAPK, sequence (Q16539 whole entry): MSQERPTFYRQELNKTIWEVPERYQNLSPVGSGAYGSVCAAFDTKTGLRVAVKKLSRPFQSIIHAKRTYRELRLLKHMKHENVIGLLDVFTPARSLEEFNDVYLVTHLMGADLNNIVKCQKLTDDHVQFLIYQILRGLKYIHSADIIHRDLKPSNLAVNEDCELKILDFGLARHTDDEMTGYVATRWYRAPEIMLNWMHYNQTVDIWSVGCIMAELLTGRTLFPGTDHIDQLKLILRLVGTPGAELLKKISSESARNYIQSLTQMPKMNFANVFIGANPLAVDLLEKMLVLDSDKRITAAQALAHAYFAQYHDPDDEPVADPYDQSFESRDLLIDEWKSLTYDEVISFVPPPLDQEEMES
# JNK3, sequence (P53779 whole entry): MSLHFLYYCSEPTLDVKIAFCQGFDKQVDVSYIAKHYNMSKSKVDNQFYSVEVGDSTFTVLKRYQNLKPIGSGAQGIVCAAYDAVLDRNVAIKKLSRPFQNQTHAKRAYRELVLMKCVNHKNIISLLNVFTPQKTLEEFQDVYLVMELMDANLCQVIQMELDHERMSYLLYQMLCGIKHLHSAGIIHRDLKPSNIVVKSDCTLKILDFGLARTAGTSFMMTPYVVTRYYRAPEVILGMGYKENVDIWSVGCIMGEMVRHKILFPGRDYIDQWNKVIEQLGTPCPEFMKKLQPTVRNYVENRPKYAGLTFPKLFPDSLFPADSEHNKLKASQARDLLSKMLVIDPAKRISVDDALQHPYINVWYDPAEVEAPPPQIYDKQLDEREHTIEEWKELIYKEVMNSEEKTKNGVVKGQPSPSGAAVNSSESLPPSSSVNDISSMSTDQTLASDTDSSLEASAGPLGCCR
# hERG channels, sequence (Q12809 whole entry): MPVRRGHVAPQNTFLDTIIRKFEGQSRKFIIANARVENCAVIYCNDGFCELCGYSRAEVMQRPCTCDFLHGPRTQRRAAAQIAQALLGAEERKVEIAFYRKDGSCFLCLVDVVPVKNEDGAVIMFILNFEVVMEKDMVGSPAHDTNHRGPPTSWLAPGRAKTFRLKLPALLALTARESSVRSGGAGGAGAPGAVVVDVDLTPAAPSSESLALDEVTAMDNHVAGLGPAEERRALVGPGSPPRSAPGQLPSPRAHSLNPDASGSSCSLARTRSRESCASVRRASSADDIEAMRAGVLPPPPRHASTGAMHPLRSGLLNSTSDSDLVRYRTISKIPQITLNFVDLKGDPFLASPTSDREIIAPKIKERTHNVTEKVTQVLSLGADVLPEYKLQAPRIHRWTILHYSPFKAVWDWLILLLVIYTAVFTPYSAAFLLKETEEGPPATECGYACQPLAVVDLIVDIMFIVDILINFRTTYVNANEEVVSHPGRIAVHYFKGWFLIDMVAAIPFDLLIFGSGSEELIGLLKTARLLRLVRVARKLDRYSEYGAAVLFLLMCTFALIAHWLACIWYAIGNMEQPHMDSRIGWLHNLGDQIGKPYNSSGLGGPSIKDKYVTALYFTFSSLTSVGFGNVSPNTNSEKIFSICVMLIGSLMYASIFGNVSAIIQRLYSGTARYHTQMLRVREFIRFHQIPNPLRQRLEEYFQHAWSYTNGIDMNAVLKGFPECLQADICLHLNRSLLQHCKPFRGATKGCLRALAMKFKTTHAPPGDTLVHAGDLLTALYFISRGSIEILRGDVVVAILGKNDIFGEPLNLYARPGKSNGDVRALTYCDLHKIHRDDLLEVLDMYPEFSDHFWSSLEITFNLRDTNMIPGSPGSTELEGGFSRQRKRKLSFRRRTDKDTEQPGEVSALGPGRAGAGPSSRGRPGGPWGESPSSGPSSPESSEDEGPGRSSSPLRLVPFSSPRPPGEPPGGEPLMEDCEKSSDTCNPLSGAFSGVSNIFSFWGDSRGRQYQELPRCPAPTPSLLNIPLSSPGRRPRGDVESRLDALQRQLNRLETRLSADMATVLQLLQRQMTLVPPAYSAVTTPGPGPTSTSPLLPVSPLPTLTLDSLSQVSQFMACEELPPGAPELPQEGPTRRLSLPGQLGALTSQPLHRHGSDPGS
# CYP450 2C19, sequence (P33261 whole entry): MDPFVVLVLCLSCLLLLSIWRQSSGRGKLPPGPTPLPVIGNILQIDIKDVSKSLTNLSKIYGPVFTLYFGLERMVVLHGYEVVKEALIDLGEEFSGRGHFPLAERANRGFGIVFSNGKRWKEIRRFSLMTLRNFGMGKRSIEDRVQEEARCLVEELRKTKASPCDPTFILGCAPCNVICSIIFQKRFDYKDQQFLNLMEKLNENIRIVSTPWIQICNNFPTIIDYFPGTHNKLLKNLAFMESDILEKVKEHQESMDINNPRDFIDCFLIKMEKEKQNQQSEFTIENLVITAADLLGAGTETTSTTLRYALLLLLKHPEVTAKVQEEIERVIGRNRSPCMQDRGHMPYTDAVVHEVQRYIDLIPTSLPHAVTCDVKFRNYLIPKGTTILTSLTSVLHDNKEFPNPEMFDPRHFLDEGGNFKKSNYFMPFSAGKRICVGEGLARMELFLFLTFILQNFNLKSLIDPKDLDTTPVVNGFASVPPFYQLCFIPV
# CYP450 2C9, sequence (P11712 whole entry): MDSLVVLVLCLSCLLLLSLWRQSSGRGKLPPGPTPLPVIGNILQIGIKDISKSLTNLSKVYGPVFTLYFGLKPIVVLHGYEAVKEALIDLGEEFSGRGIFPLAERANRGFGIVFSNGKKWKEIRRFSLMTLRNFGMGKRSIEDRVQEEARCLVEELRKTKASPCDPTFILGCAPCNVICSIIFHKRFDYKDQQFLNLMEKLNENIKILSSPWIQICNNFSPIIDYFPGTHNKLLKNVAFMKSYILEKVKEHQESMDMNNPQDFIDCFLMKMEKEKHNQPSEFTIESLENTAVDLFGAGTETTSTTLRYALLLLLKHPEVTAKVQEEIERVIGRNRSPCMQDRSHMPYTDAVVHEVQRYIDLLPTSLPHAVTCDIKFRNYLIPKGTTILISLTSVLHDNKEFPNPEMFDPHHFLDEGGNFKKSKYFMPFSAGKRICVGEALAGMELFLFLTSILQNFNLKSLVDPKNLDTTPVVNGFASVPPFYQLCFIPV
# JNK1, sequence (P45983 whole entry): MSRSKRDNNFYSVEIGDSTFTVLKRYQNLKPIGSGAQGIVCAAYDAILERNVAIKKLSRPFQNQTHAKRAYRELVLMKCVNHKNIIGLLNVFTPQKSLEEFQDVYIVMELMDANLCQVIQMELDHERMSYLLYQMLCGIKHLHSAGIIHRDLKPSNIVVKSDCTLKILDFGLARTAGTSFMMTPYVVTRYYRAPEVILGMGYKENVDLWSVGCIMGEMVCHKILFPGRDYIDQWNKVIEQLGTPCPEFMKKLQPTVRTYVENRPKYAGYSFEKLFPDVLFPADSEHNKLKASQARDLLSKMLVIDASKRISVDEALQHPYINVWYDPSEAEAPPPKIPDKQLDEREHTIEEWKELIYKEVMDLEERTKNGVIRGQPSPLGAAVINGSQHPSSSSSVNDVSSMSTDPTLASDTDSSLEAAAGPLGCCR
# CYP450 2D6, sequence (P10635 whole entry): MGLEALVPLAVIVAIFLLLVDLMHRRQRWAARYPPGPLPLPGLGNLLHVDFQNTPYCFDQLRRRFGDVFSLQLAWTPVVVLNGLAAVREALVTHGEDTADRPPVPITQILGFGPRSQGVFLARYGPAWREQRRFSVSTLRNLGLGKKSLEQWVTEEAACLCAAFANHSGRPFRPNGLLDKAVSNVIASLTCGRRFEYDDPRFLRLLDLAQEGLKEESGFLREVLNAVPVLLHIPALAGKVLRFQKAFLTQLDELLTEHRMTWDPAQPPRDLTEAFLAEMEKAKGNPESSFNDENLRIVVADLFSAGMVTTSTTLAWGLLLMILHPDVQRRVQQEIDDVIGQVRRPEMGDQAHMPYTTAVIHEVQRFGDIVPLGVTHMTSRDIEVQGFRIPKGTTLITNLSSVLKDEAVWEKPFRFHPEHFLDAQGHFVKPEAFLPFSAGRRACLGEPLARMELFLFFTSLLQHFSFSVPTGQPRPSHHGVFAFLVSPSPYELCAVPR
# JNK2, sequence (P45984 whole entry): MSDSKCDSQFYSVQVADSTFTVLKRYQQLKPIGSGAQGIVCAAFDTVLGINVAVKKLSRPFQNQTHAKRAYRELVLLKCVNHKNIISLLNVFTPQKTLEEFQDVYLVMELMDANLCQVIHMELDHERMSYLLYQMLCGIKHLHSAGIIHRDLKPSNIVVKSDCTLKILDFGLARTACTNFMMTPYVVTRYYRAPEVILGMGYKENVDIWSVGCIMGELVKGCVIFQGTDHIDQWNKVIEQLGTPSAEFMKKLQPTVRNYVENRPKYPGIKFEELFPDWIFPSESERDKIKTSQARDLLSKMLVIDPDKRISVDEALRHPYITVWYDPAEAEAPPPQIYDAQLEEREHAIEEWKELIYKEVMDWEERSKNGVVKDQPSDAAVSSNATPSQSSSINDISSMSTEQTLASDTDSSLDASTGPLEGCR
IC50 [1] [µM],inhibition at 10 µM [1] [%],IC50 [4] [nM],Structure (SMILES),also measured
> 10,48,363 ± 34,"CSc1nc(C)c(-c2ccnc(Nc3ccc(N4CCOCC4)cc3)c2)[nH]1 [Compound 44, 4-(4-Methyl-2-(methylthio)-1H-imidazol-5-yl)-N-(4-morpholinophenyl)pyridin-2-amine]",IC50 [2]: 468 nM; IC50 [3]: > 10 µM; hERG inhibition [% inhibition at 10 μM] ([3]; 10 μM): 38.8%; fold increase in the inhibitory potency on JNK3 over analogue 38 [4]: 2 fold; CYP450 inhibition 2C19 [5]: 35.6%; unmodified compound still present [6]: approximately 80%; CYP450 inhibition 2C9 [7]: 53.9%; number of kinases inhibited more than 50% [8]: 10; CYP450 inhibition 2D6 [9]: 19.0%; CYP450 inhibition 1A9 [10]: 51.5%; IC50 [11]: 119 nM; CYP450 inhibition 3A4 [12]: 75.1%
0.726 ± 0.021,–,1720,"c1cc(-c2[nH]cnc2C2CCCCC2)cc(Nc2ccc(N3CCOCC3)cc2)n1 [Compound 18g, 4-(4-Cyclohexyl-1H-imidazol-5-yl)-N-(4-morpholinophenyl)pyridin-2-amine]",fold higher activity for p38α MAPK than for JNK3 ([1]; ratio of IC50 values): 2 fold
0.024 ± 0.003,–,37 ± 3,"c1ccc(-c2nc[nH]c2-c2ccnc(Nc3ccc(N4CCOCC4)cc3)c2)cc1 [Compound 18a, N-(4-Morpholinophenyl)-4-(4-phenyl-1H-imidazol-5-yl)pyridin-2-amine]",–
> 10,31,671 ± 74,"CSc1nc(C)c(-c2ccnc(NC3CCCCC3)c2)[nH]1 [Compound 48e, N-Cyclohexyl-4-(4-methyl-2-(methylthio)-1H-imidazol-5-yl)pyridin-2-amine]",–
> 10,40,6510,"CSc1nc(C)c(-c2ccnc(Nc3ccc(N4CCOCC4)cc3)c2)n1C1CC1 [Compound 59, 4-(1-Cyclopropyl-4-methyl-2-(methylthio)-1H-imidazol-5-yl)-N-(4-morpholinophenyl)pyridin-2-amine]",fold less active on JNK3 compared to N-methyl analogue 57 [4]: ~3 fold
> 10,41,> 10000,"CC(C)(C)c1nc[nH]c1-c1ccnc(Nc2ccc(N3CCOCC3)cc2)c1 [Compound 18k, 4-(4-(tert-Butyl)-1H-imidazol-y-yl)-N-(4-morpholinophenyl)pyridin-2-amine]",inhibition at 10 µM ([4]; read-out: Percent inhibition of JNK3 at indicated concentration): 32%
> 10,32,415 ± 40,"CSc1nc(C)c(-c2ccnc(Nc3ccc(NC(C)=O)cc3)c2)[nH]1 [Compound 48n, N-(4-((4-(4-Methyl-2-(methylthio)-1H-imidazol-5-yl)pyridin-2-yl)amino)phenyl)acetamide]",–
> 10,38,353 ± 58,"CSc1nc(C)c(-c2ccnc(Nc3ccc(N)cc3)c2)[nH]1 [Compound 48m, N1-(4-(4-Methyl-2-(methylthio)-1H-imidazol-5-yl)pyridin-2-yl)benzene-1,4-diamine]",–
> 10,46,941 ± 75,"CSc1nc(C)c(-c2ccnc(N[C@H]3CC[C@H](N)CC3)c2)[nH]1 [Compound 48h, trans-N1-(4-(4-Methyl-2-(methylthio)-1H-imidazol-5-yl)pyridin-2-yl)cyclohexane-1,4-diamine]",fold drop in potency on JNK3 versus parent compound 44 [4]: 3 fold
> 10,36,3040,"CSc1nc(C)c(-c2ccnc(NC3CCC3)c2)[nH]1 [Compound 48c, N-Cyclobutyl-4-(4-methyl-2-(methylthio)-1H-imidazol-5-yl)pyridin-2-amine]",–
0.009 ± 0.004,–,34 ± 0.2,"CCc1nc(-c2ccc(F)cc2)c(-c2ccnc(Nc3ccc(N4CCOCC4)cc3)c2)[nH]1 [Compound 13, 4-(2-Ethyl-4-(4-fluorophenyl)-1H-imidazol-5-yl)-N-(4-morpholinophenyl)pyridin-2-amine]",–
1.72,–,–,"c1cc(-c2[nH]cnc2C2CCCC2)cc(Nc2ccc(N3CCOCC3)cc2)n1 [Compound 18h, 4-(4-Cyclopentyl-1H-imidazol-5-yl)-N-(4-morpholinophenyl)pyridin-2-amine]","IC50 ([4]; read-out: IC50 ± SD JNK3, ELISA, mean of three experiments (SP600125 n = 16)): 2190 nM"
> 10,43,562 ± 21,"CSc1ncc(-c2ccnc(Nc3ccc(N4CCOCC4)cc3)c2)[nH]1 [Compound 43, 4-(2-(Methylthio)-1H-imidazol-5-yl)-N-(4-morpholinophenyl)pyridin-2-amine]",–
